{"source": "paper PMC9147442", "about": "“Design, Synthesis, and Evaluation of Linker-Optimised PSMA-Targeting Radioligands” (Pharmaceutics, 2022)", "origin": "cited, not measured here", "design": "method as in PMID 26985056", "conditions": "radiotherapy"}
{"substance": "[^177Lu]Lu-PSMA-617", "values": [{"measurement": "renal excretion", "value": "~ 50 % IA"}]}
